Measured values reported in publication PMC12446476 (Nature Communications, 2025).
In brackets after ≈: the same amount, converted by molar mass. Where two headings read alike, the source gives them in different places.

System: N. gonorrhoeae
Assay: MIC determination, Etest
Format: cell-based, Neisseria gonorrhoeae
Conditions: for MIC: Neisseria gonorrhoeae, comparator antibiotics, read-out: Minimum inhibitory concentration
Excerpt: The 2024 WHO N. gonorrhoeae reference strains were used for quality control. Only whole MIC doubling dilutions are reported. Clinical breakpoints or the epidemiological cutoff (ECOFF, to indicate azithromycin resistance) from EUCAST (v14.0, https://www.eucast.org/clinical_breakpoints) were used to classify isolates as antimicrobial susceptible or resistant. […] Two times the standard inoculum defined by CLSI was used to establish consistent growth in untreated control samples for some strains. In vitro time-kill assays were performed according to CLSI guidelines[65] using Columbia Broth (BD Difco) supplemented with 1% IsoVitaleX Enrichment (BD). Viable bacterial counts were generated by plating 10-fold serially diluted samples on GC agar plates containing 1% IsoVitaleX Enrichment (BD).

CN[C@@H]1[C@H](O)[C@H](NC)[C@H]2O[C@@]3(O)C(=O)C[C@@H](C)O[C@H]3O[C@@H]2[C@H]1O [Spectinomycin] gave an MIC (clinical N. gonorrhoeae isolate 50, Sweden 2023) of 16 µg/mL (≈ 48.1 µM), an MIC (clinical N. gonorrhoeae isolate 51, Sweden 2023) of 8 µg/mL (≈ 24.1 µM) and an MIC (clinical N. gonorrhoeae isolate 52, Sweden 2023) of 16 µg/mL (≈ 48.1 µM). For the same molecule, the MIC (clinical N. gonorrhoeae isolate 53, Sweden 2023) was 8 µg/mL (≈ 24.1 µM), the MIC (clinical N. gonorrhoeae isolate 54, Sweden 2023) was 16 µg/mL (≈ 48.1 µM) and the MIC (clinical N. gonorrhoeae isolate 55, Sweden 2023) was 16 µg/mL (≈ 48.1 µM). The MIC (clinical N. gonorrhoeae isolate 56, Sweden 2023) was 8 µg/mL (≈ 24.1 µM), the MIC (clinical N. gonorrhoeae isolate 57, Sweden 2023) was 8 µg/mL (≈ 24.1 µM) and the MIC (clinical N. gonorrhoeae isolate 58, Sweden 2023) was 8 µg/mL (≈ 24.1 µM). The MIC (clinical N. gonorrhoeae isolate 59, Sweden 2023) was 8 µg/mL (≈ 24.1 µM), the MIC (clinical N. gonorrhoeae isolate 60, Sweden 2023) was 16 µg/mL (≈ 48.1 µM) and the MIC (clinical N. gonorrhoeae isolate 61, Sweden 2023) was 8 µg/mL (≈ 24.1 µM). For the same molecule, the MIC (clinical N. gonorrhoeae isolate 62, Sweden 2023) was 8 µg/mL (≈ 24.1 µM), the MIC (clinical N. gonorrhoeae isolate 63, Sweden 2023) was 16 µg/mL (≈ 48.1 µM) and the MIC (clinical N. gonorrhoeae isolate 64, Sweden 2023) was 16 µg/mL (≈ 48.1 µM). The MIC (clinical N. gonorrhoeae isolate 65, Sweden 2023) was 16 µg/mL (≈ 48.1 µM), the MIC (clinical N. gonorrhoeae isolate 66, Sweden 2023) was 16 µg/mL (≈ 48.1 µM) and the MIC (clinical N. gonorrhoeae isolate 67, Sweden 2023) was 16 µg/mL (≈ 48.1 µM). It also gave an MIC (clinical N. gonorrhoeae isolate 68, Sweden 2023) of 16 µg/mL (≈ 48.1 µM), an MIC (clinical N. gonorrhoeae isolate 69, Sweden 2023) of 16 µg/mL (≈ 48.1 µM) and an MIC (clinical N. gonorrhoeae isolate 70, Sweden 2023) of 8 µg/mL (≈ 24.1 µM). The MIC (clinical N. gonorrhoeae isolate 71, Sweden 2023) was 16 µg/mL (≈ 48.1 µM), the MIC (clinical N. gonorrhoeae isolate 72, Sweden 2023) was 8 µg/mL (≈ 24.1 µM) and the MIC (clinical N. gonorrhoeae isolate 73, Sweden 2023) was 16 µg/mL (≈ 48.1 µM). For the same molecule, the MIC (clinical N. gonorrhoeae isolate 74, Sweden 2023) was 16 µg/mL (≈ 48.1 µM), the MIC (clinical N. gonorrhoeae isolate 75, Sweden 2023) was 8 µg/mL (≈ 24.1 µM) and the MIC (clinical N. gonorrhoeae isolate 76, Sweden 2023) was 8 µg/mL (≈ 24.1 µM). For the same molecule, the MIC (clinical N. gonorrhoeae isolate 77, Sweden 2023) was 16 µg/mL (≈ 48.1 µM), the MIC (clinical N. gonorrhoeae isolate 78, Sweden 2023) was 16 µg/mL (≈ 48.1 µM) and the MIC (clinical N. gonorrhoeae isolate 79, Sweden 2023) was 8 µg/mL (≈ 24.1 µM). It also gave an MIC (clinical N. gonorrhoeae isolate 80, Sweden 2023) of 16 µg/mL (≈ 48.1 µM), an MIC (clinical N. gonorrhoeae isolate 81, Sweden 2023) of 16 µg/mL (≈ 48.1 µM) and an MIC (clinical N. gonorrhoeae isolate 82, Sweden 2023) of 16 µg/mL (≈ 48.1 µM). The MIC (clinical N. gonorrhoeae isolate 83, Sweden 2023) was 8 µg/mL (≈ 24.1 µM), the MIC (clinical N. gonorrhoeae isolate 84, Sweden 2023) was 16 µg/mL (≈ 48.1 µM) and the MIC (clinical N. gonorrhoeae isolate 85, Sweden 2023) was 8 µg/mL (≈ 24.1 µM). The MIC (clinical N. gonorrhoeae isolate 86, Sweden 2023) was 8 µg/mL (≈ 24.1 µM), the MIC (clinical N. gonorrhoeae isolate 87, Sweden 2023) was 8 µg/mL (≈ 24.1 µM) and the MIC (clinical N. gonorrhoeae isolate 88, Sweden 2023) was 16 µg/mL (≈ 48.1 µM). The MIC (clinical N. gonorrhoeae isolate 89, Sweden 2023) was 16 µg/mL (≈ 48.1 µM), the MIC (clinical N. gonorrhoeae isolate 90, Sweden 2023) was 16 µg/mL (≈ 48.1 µM) and the MIC (clinical N. gonorrhoeae isolate 91, Sweden 2023) was 4 µg/mL (≈ 12 µM). It also gave an MIC (clinical N. gonorrhoeae isolate 92, Sweden 2023) of 8 µg/mL (≈ 24.1 µM), an MIC (clinical N. gonorrhoeae isolate 93, Sweden 2023) of 16 µg/mL (≈ 48.1 µM) and an MIC (clinical N. gonorrhoeae isolate 94, Sweden 2023) of 8 µg/mL (≈ 24.1 µM). The MIC (clinical N. gonorrhoeae isolate 95, Sweden 2023) was 16 µg/mL (≈ 48.1 µM), the MIC (clinical N. gonorrhoeae isolate 96, Sweden 2023) was 8 µg/mL (≈ 24.1 µM) and the MIC (clinical N. gonorrhoeae isolate 97, Sweden 2023) was 16 µg/mL (≈ 48.1 µM). It also gave an MIC (clinical N. gonorrhoeae isolate 98, Sweden 2023) of 4 µg/mL (≈ 12 µM), an MIC (clinical N. gonorrhoeae isolate 99, Sweden 2023) of 4 µg/mL (≈ 12 µM) and an MIC (clinical N. gonorrhoeae isolate 100, Sweden 2023) of 16 µg/mL (≈ 48.1 µM). For the same molecule, the “AMR phenotype (susceptibility category, EUCAST)” value (“AMR phenotype” below) (WHO F) was “S”, the “AMR phenotype” value (WHO H) was “S” and the “AMR phenotype” value (WHO K) was “S”. The “AMR phenotype” value (WHO L) was “S”, the “AMR phenotype” value (WHO M) was “S” and the “AMR phenotype” value (WHO O) was “R”. The “AMR phenotype” value (WHO P) was “S”, the “AMR phenotype” value (WHO Q) was “S” and the “AMR phenotype” value (WHO R) was “S”. The “AMR phenotype” value (WHO S2) was “S”, the “AMR phenotype” value (WHO U) was “S” and the “AMR phenotype” value (WHO V) was “S”. The “AMR phenotype” value (WHO X) was “S”, the “AMR phenotype” value (WHO Y) was “S” and the “AMR phenotype” value (WHO Z) was “S”.
